# Test results taken from patent US20170112775A1, “SITU SELF-ASSEMBLING PRO-NANOPARTICLE COMPOSITIONS AND METHODS OF PREPARATION AND USE THEREOF” (University of North Texas Health Science Center, priority 2015, published 2017).
# Where a name gives a salt, the structure may show the parent alone. Read-outs that look alike come from different tables or passages of the source.
# Experiments:
# [1] = cited from earlier work
# [2] = PK study after subcutaneous injection; format: in vivo, Sprague Dawley rats; conditions: male, Sprague Dawley, rat, plasma, sc, after 6 days, one subcutaneous injection of LPV/RTV ISNPs
# Procedure: Animal studies were performed in compliance with guidelines set by the University of North Texas Health Science Center Institutional Animal Care and Use Committees. Rats were housed in groups of 2 under a 12-h light/dark cycle with free access to food and water for 1 week before use. Sprague Dawley rats (males, 276-300 g, n=4) were purchased from Charles River Laboratories (Wilmington, Mass.). Pharmacokinetic studies were conducted to evaluate the pharmacokinetic profiles of LPV and RTV from LPV/RTV ISNPs. Rats were treated with 100 ul of LPV/RTV ISNPs to provide 100 mg/kg of LPV by subcutaneous injection. After the injection, the inventor collected the blood at 0, 1, 2, 3, 5, 6, 24 hours and 2, 3, 4, 5, 6 days. The blood was immediately centrifuged at 3400 rpm for 5 min at 4° C., and 100 ul of plasma samples were transferred to a new tube and stored at −20° C. until further analysis within 3 weeks. LPV and RTV concentrations in the plasma were determined by liquid chromatography-mass spectrometry (LC-MS, an Agilent G6460 Triple Quad LC-MS system) using a previously reported method.
# [3] = Solubility screening in oils and surfactants; format: physicochemical
# Procedure: These studies were performed to test the solubility of RTV in oils and surfactants. Briefly, oils and surfactants were accurately weighed into glass vials. Certain amounts of […] were added into the glass vials. The vials were stirred on the hot plate maintained at 65° C. for 3 min. The solubilization was monitored by eyes and the drug solubility (w/w) was estimated.
# These studies were performed to test the solubility in oils and surfactants. The solubility of DTX was determined in oils (oleic acid, Migloyl 812, Kollisolv® MCT70, Kolliwax® GMSI, Imwitor® 960, and Labrafac) and surfactants (TPGS, Poloxamer 188, Tween 20, and Tween 80). Oils and surfactants were accurately weighed into glass vials. Excess amounts of DTX were added into glass vials containing vehicles. The vials were stirred on the hot plate maintained at 65° C. for 3 min. The drug solubility (w/w) was calculated.
# These studies were performed to test the solubility in oils and surfactants. The solubility of CUR was determined in oils (Migloyl 812 N, Migloyl 829, Imwitor 491, Kollisolv MCT70, labrafac, Imwitor 900K, Imwitor 960 and Campriltol 888) and surfactants (Tween 20, Tween 80, Labrasol, Poloxamer 188, TPGS and Gelucire 44/14). Oils and surfactants were accurately weighed into glass vials. Excess amounts of CUR were added into glass vials containing vehicles. The vials were stirred on the hot plate maintained at 65° C. for 3 min. The drug solubility (w/w) was calculated.
# [4] = system: PC3 sensitive prostate cancer cell line; test: MTT cytotoxicity, PC3 sensitive; format: cell-based; conditions: Homo sapiens, 72 hr
# Procedure: (§1) The cytotoxicity of DTX MT NPs was tested in PC3 and DU145 sensitive and resistant cell using MTT [3-(4,5-dimethylthiazol-2-yl)-2,5-diphenyltetrazolium bromide] assay. Cells were seeded into 96-well plates with a density of 7,000 cells/well and incubated at 37° C. for 24 hr under 5% CO2. Following that, cells were treated with a drug equivalent concentration ranging from 0.5-10,000 nM for DTX, DTX MT NPs, and blank NPs. Due to low water solubility, DTX was dissolved with DMSO. After 72 hr of incubation, the medium was removed from each well and replaced with 90 μL of DMEM medium without phenol red and 10 μL of MTT (5 mg/mL in PBS). The plates were incubated at 37° C. with 5% CO2 for 4 hr. […] The absorbance was measured at a test wavelength of 570 nm and a reference wavelength of 650 nm in a microplate reader (Synergy H1 hybrid Multi-Mode Microplate Reader)
# (§2) The cytotoxicity of CUR MT NPs was tested in DU145 and PC-3 human prostate cancer cell lines using MTT [3-(4,5-dimethylthiazol-2-yl)-2,5-diphenyltetrazolium bromide] assay. […] After 72 hr of incubation, the medium was removed from each well and replaced with 90 μL of DMEM medium without phenol read and MTT (10 μL of 5 mg/mL in PBS). […] The absorbance was measured at a test wavelength of 570 nm and a reference wavelength of 650 nm in a microplate reader (Beckman Coulter, Inc.).
# [5] = system: DU145 sensitive prostate cancer cell line; test: MTT cytotoxicity, DU145 sensitive; format: cell-based; conditions: Homo sapiens, 72 hr
# Procedure: as §1, §2
# [6] = system: PC3 resistant prostate cancer cell line; test: MTT cytotoxicity, PC3 resistant; format: cell-based; conditions: Homo sapiens, 72 hr
# Procedure: as §1, §2
# [7] = system: DU145 resistant prostate cancer cell line; test: MTT cytotoxicity, DU145 resistant; format: cell-based, human; conditions: for IC50: Homo sapiens, 72 hr, MTT
# Procedure: The cytotoxicity of DTX MT NPs was tested in PC3 and DU145 sensitive and resistant cell using MTT [3-(4,5-dimethylthiazol-2-yl)-2,5-diphenyltetrazolium bromide] assay. Cells were seeded into 96-well plates with a density of 7,000 cells/well and incubated at 37° C. for 24 hr under 5% CO2. Following that, cells were treated with a drug equivalent concentration ranging from 0.5-10,000 nM for DTX, DTX MT NPs, and blank NPs. Due to low water solubility, DTX was dissolved with DMSO. After 72 hr of incubation, the medium was removed from each well and replaced with 90 μL of DMEM medium without phenol red and 10 μL of MTT (5 mg/mL in PBS). The plates were incubated at 37° C. with 5% CO2 for 4 hr. Formazan produced by mitochondria enzymes of living cells was dissolved in 150 μL of isopropanol containing 0.04 N HCl for 5 min. The absorbance was measured at a test wavelength of 570 nm and a reference wavelength of 650 nm in a microplate reader (Synergy H1 hybrid Multi-Mode Microplate Reader)
# The cytotoxicity of CUR MT NPs was tested in DU145 and PC-3 human prostate cancer cell lines using MTT [3-(4,5-dimethylthiazol-2-yl)-2,5-diphenyltetrazolium bromide] assay. Cells were seeded into 96-well plates at 7,000 cells/well and incubated 37° C. for 24 hr under 5% CO2. After overnight incubation, cells were treated with drug concentration ranging from 0-27 μM for CUR, CUR MT NPs, and blank NPs. Due to low water solubility, CUR was dissolved with DMSO. After 72 hr of incubation, the medium was removed from each well and replaced with 90 μL of DMEM medium without phenol read and MTT (10 μL of 5 mg/mL in PBS). After incubating for 4 hr at 37° C. with 5% CO2, 0.04 N HCl/isopropanol was added to each well and incubated for 5 min to dissolve formazan crystals formed by viable cells. The absorbance was measured at a test wavelength of 570 nm and a reference wavelength of 650 nm in a microplate reader (Beckman Coulter, Inc.).
# cancer cells = conditions: cited from earlier work
smiles,measurement,setting,value
"CC(C)OC(=O)OCOP(=O)(CO[C@H](C)Cn1cnc2c(N)ncnc21)OCOC(=O)OC(C)C [TDF, tenofovir disoproxil fumarate]",Bioavailability,[1]; oral,25%
CC(C)c1nc(CN(C)C(=O)N[C@H](C(=O)N[C@@H](Cc2ccccc2)C[C@H](O)[C@H](Cc2ccccc2)NC(=O)OCc2cncs2)C(C)C)cs1 [ritonavir],concentration at 6 days,[2]; read-out: RTV Ctrough,~50 ng/mL
Cc1cccc(C)c1OCC(=O)N[C@@H](Cc1ccccc1)[C@@H](O)C[C@H](Cc1ccccc1)NC(=O)[C@H](C(C)C)N1CCCNC1=O [lopinavir],Estimated solubility,"[3]; in Brij 78, 65° C.",0.4725 mg/mg
same,Estimated solubility,"[3]; in Glyceryl behenate, 65° C.",0.0744 mg/mg
same,Estimated solubility,"[3]; in Killiphor P 188/Poloxamer F68, 65° C.",0.3431 mg/mg
same,Estimated solubility,"[3]; in Kollisolv MCT70, 65° C.",0.0779 mg/mg
same,Estimated solubility,"[3]; in Kolliwax GMS I, 65° C.",0.5846 mg/mg
same,Estimated solubility,"[3]; in Miglyo812, 65° C.",0.0703 mg/mg
same,Estimated solubility,"[3]; in Oleic acid, 65° C.",1.19 mg/mg
same,Estimated solubility,"[3]; in TPGS, 65° C.",0.6012 mg/mg
same,concentration at 6 days,"[2]; 100 mg/kg of LPV, read-out: LPV Ctrough",> 160 ng/mL
COc1cc(/C=C/C(=O)CC(=O)/C=C/c2ccc(O)c(OC)c2)ccc1O [Curcumin],Solubility (w/w),"[3]; in Campriltol 888, 65° C.",0.0160 w/w
same,Solubility (w/w),"[3]; in Gelucire 44/14, 65° C.",0.153 w/w
same,Solubility (w/w),"[3]; in Imwitor 491, 65° C.",0.0261 w/w
same,Solubility (w/w),"[3]; in Imwitor 900K, 65° C.",0.0512 w/w
same,Solubility (w/w),"[3]; in Imwitor 960, 65° C.",0.0488 w/w
same,Solubility (w/w),"[3]; in Kollisolv MCT70, 65° C.",0.0179 w/w
same,Solubility (w/w),"[3]; in Labrafac, 65° C.",0.0120 w/w
same,Solubility (w/w),"[3]; in Labrasol, 65° C.",0.173 w/w
same,Solubility (w/w),"[3]; in Migloyl 812 N, 65° C.",0.0153 w/w
same,Solubility (w/w),"[3]; in Migloyl 829, 65° C.",0.0210 w/w
same,Solubility (w/w),"[3]; in Poloxamer 188, 65° C.",0.153 w/w
same,Solubility (w/w),"[3]; in TPGS, 65° C.",0.164 w/w
same,Solubility (w/w),"[3]; in Tween 20, 65° C.",0.166 w/w
same,Solubility (w/w),"[3]; in Tween 80, 65° C.",0.141 w/w
same,IC50,[4]; PC-3 sensitive,7.9 ± 0.3 µM
same,IC50,[5]; DU-145 sensitive,7.2 ± 0.4 µM
same,IC50,[6]; PC-3 resistance,7.7 ± 0.1 µM
same,IC50,[7]; DU-145 resistance,10 ± 0.5 µM
same,IC50 higher in resistant DU145 than in sensitive DU145,[7]; resistant vs sensitive DU145,1.4 fold
same,Concentration with anticancer effects,cancer cells,5 to 30 µM
CC(=O)O[C@@]12CO[C@@H]1C[C@H](O)[C@@]1(C)C(=O)[C@H](O)C3=C(C)[C@@H](OC(=O)[C@H](O)[C@@H](NC(=O)OC(C)(C)C)c4ccccc4)C[C@@](O)([C@@H](OC(=O)c4ccccc4)[C@H]21)C3(C)C [docetaxel],Solubility (w/w),"[3]; in Imwitor 960K, 65° C.",0.053 w/w
same,Solubility (w/w),"[3]; in Kollisolv MCT70, 65° C.",0.038 w/w
same,Solubility (w/w),"[3]; in Kolliwax GMS I, 65° C.",0.025 w/w
same,Solubility (w/w),"[3]; in Labrafac, 65° C.",0.022 w/w
same,Solubility (w/w),"[3]; in Migloyl 812, 65° C.",0.079 w/w
same,Solubility (w/w),"[3]; in Oleic acid, 65° C.",0.066 w/w
same,Solubility (w/w),"[3]; in Poloxamer 188, 65° C.",0.019 w/w
same,Solubility (w/w),"[3]; in TPGS, 65° C.",0.008 w/w
same,Solubility (w/w),"[3]; in Tween 20, 65° C.",0.052 w/w
same,Solubility (w/w),"[3]; in Tween 80, 65° C.",0.082 w/w
same,IC50,[4]; PC3 sensitive,0.007 ± 0.0004 µM
same,IC50,"[5]; DU-145, DU145 sensitive",0.0068 ± 0.0005 µM
same,IC50,[6]; PC3 resistance,0.0753 ± 0.0027 µM
same,IC50,"[7]; DU-145, DU145 resistance",0.87 ± 0.0854 µM
"CN(Cc1cnc2nc(N)nc(N)c2n1)c1ccc(C(=O)N[C@@H](CCC(=O)O)C(=O)O)cc1 [MTX, methotrexate]",Bioavailability,[1]; oral,30%
"COC(=O)N[C@H](C(=O)N[C@@H](Cc1ccccc1)[C@@H](O)CN(Cc1ccc(-c2ccccn2)cc1)NC(=O)[C@@H](NC(=O)OC)C(C)(C)C)C(C)(C)C [ATV, atazanavir]",Bioavailability,[1]; without food,about 20%
"Nc1nc(=O)n([C@@H]2CS[C@H](CO)O2)cc1F [FTC, emtricitabine]",Bioavailability,[1]; oral,over 98%
